Drawing on PMC7841778 (ACS Omega, 2021), this text covers Kd and Km for two compounds.

For orientation: Kd means the constant that tells how readily two partners part at equilibrium. Read a high Kd as weaker binding. One may read the Km as the concentration of substrate that gives half-maximal velocity.

The target in assay [1] is T1, human pancreatic α-amylase (HPA) (Homo sapiens, UniProt P04746).
T1 sequence (P04746 16-511): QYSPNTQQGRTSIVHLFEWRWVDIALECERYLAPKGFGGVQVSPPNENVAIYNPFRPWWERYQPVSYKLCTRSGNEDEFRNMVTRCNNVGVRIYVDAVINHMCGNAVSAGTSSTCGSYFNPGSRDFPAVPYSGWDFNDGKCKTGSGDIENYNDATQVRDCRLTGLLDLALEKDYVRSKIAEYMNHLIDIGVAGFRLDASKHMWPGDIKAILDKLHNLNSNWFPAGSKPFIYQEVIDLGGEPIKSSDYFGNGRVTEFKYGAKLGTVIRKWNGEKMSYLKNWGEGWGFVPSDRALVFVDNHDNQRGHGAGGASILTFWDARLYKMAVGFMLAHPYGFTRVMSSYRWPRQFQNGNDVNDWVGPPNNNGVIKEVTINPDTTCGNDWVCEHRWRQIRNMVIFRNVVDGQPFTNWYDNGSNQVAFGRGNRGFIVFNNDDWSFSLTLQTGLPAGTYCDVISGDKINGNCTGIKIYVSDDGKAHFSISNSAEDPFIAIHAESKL
The experiment in a line: ITC. The assay is classed as binding.

The target in assay [2] is T1, human pancreatic α-amylase (HPA). The experiment in a line: hydrolysis kinetics, KM. The assay is classed as biochemical. Conditions: read-out: KM ^b.

Take `C=CCc1ccc(Oc2cc(CC=C)cc(OC)c2O)c(OC)c1` [DDEB, dehydrodieugenol B]: the affinity in assay [1], expressed as Kd, was 1970 nM.
For `OC[C@H]1O[C@H](O[C@H]2[C@H](O)[C@@H](O)[C@@H](O[C@H]3[C@H](O)[C@@H](O)[C@@H](O[C@H]4[C@H](O)[C@@H](O)[C@@H](O[C@H]5[C@H](O)[C@@H](O)C(O)O[C@@H]5CO)O[C@@H]4CO)O[C@@H]3CO)O[C@@H]2CO)[C@H](O)[C@@H](O)[C@@H]1O` (some centres unmarked) [maltopentaose], in assay [2], the Km was determined as 132 ± 6.62 µM.
